Results as given in article PMC5357622, “Chelation Motifs Affecting Metal-dependent Viral Enzymes: N′-acylhydrazone Ligands as Dual Target Inhibitors of HIV-1 Integrase and Reverse Transcriptase Ribonuclease H Domain” (Frontiers in Microbiology, 2017).
Where “and” joins values, the source holds several entries; their conditions need not be identical. Equal entries are not always repeated.

Key:
[1] = molecular target: T1, HIV-1 RT-associated RNase H (Human immunodeficiency virus type 1 group M subtype B, UniProt P03366); experiment: HIV-1 RT-associated RNase H assay (fluorescent RNA/DNA hybrid); format: biochemical
T1 construct: Human immunodeficiency virus type 1 heterodimeric RT was expressed and purified; made in house
Description: Human immunodeficiency virus type 1 heterodimeric RT was expressed and purified as previously described ([Esposito et al., 2011]; [Meleddu et al., 2014]). The HIV-1 RT-associated RNase H activity was measured as described ([Corona et al., 2014a]; [Meleddu et al., 2015]). Briefly, 20 ng of HIV-1 RT was incubated in 100 μL reaction volume containing 50 mM Tris-HCl (pH 7.8), 6 mM MgCl2, 1 mM DTT, 80 mM KCl, hybrid RNA/DNA (5′-[…]-3′-Fluorescein, 5′-[…]-3′-Dabcyl) and 2 nM RT. The reaction mixture was incubated for 1 h at 37°C; the reaction was stopped by addition of EDTA and products were measured with a Victor 3 (Perkin Elmer model 1420-051) equipped with filters for 490/528 nm (excitation/emission wavelength).

[2] = molecular target: HIV-1 IN in presence of LEDGF/p75 (Human immunodeficiency virus type 1 group M subtype B, UniProt P03366); experiment: HIV-1 IN/LEDGF HTRF LEDGF-dependent integration assay
Description: The IN-LEDGF/p75 dependent assay allows to measure the inhibition of 3′ processing and strand transfer IN reactions in presence of recombinant LEDGF/p75 protein, as previously described ([Tintori et al., 2015]). Briefly, 50 nM IN was pre-incubated with increasing concentration of compounds for 1 h at room temperature in reaction buffer containing 20 mM HEPES pH 7.5, 1 mM DTT, 1% glycerol, 20 mM MgCl2, 0.05% Brij-35 and 0.1 mg/ml BSA. DNA donor substrate, DNA acceptor substrate and 50 nM LEDGF/p75 protein were added and incubated at 37°C for 90 min. After the incubation, 4 nM of Europium-Streptavidin were added to the reaction mixture and the HTRF signal was recorded using a Perkin Elmer Victor 3 plate reader using a 314 nm for excitation wavelength and 668 and 620 nm for the wavelength of the acceptor and the donor substrates emission, respectively.

[3] = system: HIV-1 (strain IIIB); experiment: Cell-based HIV assay in MT-4 cells (MTT, virus-induced cytopathic effect); conditions: Human immunodeficiency virus 1, IIIB
Description: (§1) The procedure to determine anti-HIV activity and cytotoxicity of the compounds in human lymphocyte MT-4 cells was published elsewhere ([Pannecouque et al., 2008]). Briefly, serial dilutions of the compounds were added to 96-well plates containing the MT-4 cells. To the virus-infected wells, 100–300 CCID50 (50% cell culture infectious dose-50%) of HIV-1 (strain IIIB) or HIV-2 (strain ROD) was added. The mock-infected wells received the compounds without the virus. After 5 days incubation, the spectrophotometric MTT assay was performed to determine the effect of the compounds on the viability of the mock- and HIV-infected cells.

[4] = in vitro; format: cell-based; conditions: human
Description: as §1

Sequence of HIV-1 IN in presence of LEDGF/p75 (O75475 whole entry, other chains not shown): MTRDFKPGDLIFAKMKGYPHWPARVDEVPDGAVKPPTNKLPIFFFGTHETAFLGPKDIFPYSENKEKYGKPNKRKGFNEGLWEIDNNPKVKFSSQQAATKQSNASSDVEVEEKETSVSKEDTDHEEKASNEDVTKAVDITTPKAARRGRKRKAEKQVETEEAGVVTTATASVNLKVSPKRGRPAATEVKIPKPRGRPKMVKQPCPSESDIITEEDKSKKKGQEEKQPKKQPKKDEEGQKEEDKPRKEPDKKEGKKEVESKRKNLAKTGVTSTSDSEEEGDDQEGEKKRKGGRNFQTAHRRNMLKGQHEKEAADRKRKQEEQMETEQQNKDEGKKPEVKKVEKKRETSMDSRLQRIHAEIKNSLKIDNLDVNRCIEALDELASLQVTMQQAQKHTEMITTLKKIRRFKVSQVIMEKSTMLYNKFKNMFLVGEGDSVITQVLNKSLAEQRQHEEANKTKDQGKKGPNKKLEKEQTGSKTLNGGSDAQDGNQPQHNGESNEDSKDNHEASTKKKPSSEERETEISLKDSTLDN

Row | SMILES | IC50 [1] | IC50 [2] | further results
1 | O=C(N/N=C/c1cccc(O)c1O)c1cc(O)c(O)c(O)c1 [Compound 14] | 3.1 ± 0.5 µM | > 100 µM | 
2 | O=C(N/N=C/c1cc(O)c(O)c(O)c1)c1ccccc1O [Compound 10] | 4.1 ± 0.2 µM | > 100 µM | 
3 | O=C(N/N=C/c1ccc(O)c(O)c1O)c1ccccc1O [Compound 7] | 25 µM and 25.3 µM | 7.1 ± 0.2 µM | 
4 | O=C(N/N=C/c1ccc(O)c(O)c1O)c1cc(O)c(O)c(O)c1 [Compound 20] | 0.175 µM and 0.17 µM | 0.085 ± 0.025 µM | 
5 | COc1cc(C(=O)N/N=C/c2cc(O)ccc2O)cc(OC)c1OC [Compound 19] | > 100 µM | > 100 µM | 
6 | O=C(N/N=C/c1c(O)cc(O)cc1O)c1ccccc1O [Compound 9] | 9.6 ± 3.4 µM | 9.4 ± 0.4 µM | 
7 | CCCCCCCC(=O)N/N=C/c1cccc(OC)c1O [Compound 2] | ~60 µM and 62 µM |  | 
8 | O=C(N/N=C/c1ccccn1)c1cc(O)c(O)c(O)c1 [Compound 12] | 3.2 ± 0.5 µM | > 100 µM | 
9 | O=C(N/N=C/c1cc(O)c(O)cc1O)c1ccccc1O [Compound 8] | 8.8 ± 3.1 µM | 30 ± 1 µM | 
10 | COc1cccc(/C=N/NC(=O)c2ccccc2)c1O [Compound 4] | > 100 µM |  | HIV-1 RNase H IC50 [1]: completely abolished
11 | COc1ccc(O)c(/C=N/NC(=O)c2cc(O)c(O)c(O)c2)c1 [Compound 17] | 2 ± 0.5 µM | > 100 µM | 
12 | O=C(N/N=C/c1ccccc1O)c1cc(O)c(O)c(O)c1 [Compound 13] | 2.3 ± 0.7 µM | > 100 µM | 
13 | O=C(N/N=C/c1cc(O)c(O)cc1O)c1cc(O)c(O)c(O)c1 [Compound 21] | 0.62 ± 0.1 µM | 0.08 ± 0.01 µM | 
14 | O=C(N/N=C/c1cc(O)ccc1O)c1cc(O)c(O)c(O)c1 [Compound 16] | 2.1 ± 0.1 µM | 69 ± 5 µM | 
15 | O=C(N/N=C/c1ccccc1)c1cc(O)c(O)c(O)c1 [Compound 11] | 2.6 ± 0.6 µM | > 100 µM | 
16 | COc1cccc(/C=N/NC(=O)c2ccccc2O)c1O [Compound 6] | 37 ± 5 µM | > 100 µM | 
17 | CCOC(=O)C(=O)CC(=O)/C=C/c1cccn1Cc1ccc(F)cc1 [RDS1643, reference compound] | 7.5 ± 0.9 µM |  | 
18 | O=C(N/N=C/c1cccc(O)c1O)c1ccccc1 [Compound 3] | > 100 µM | > 100 µM | HIV-1 RNase H IC50 [1]: completely abolished
19 | COc1cccc(/C=N/NC(=O)c2cc(O)c(O)c(O)c2)c1O [Compound 15] | 0.92 ± 0.02 µM | > 100 µM | 
20 | CCCCCCCC(=O)N/N=C/c1cccc(O)c1O [Compound 1, N′-2,3-dihydroxy benzylidene heptyl hydrazone] | ~60 µM and 61 µM | > 100 µM | 
21 | O=C(N/N=C/c1cc(O)c(O)c(O)c1)c1cc(O)c(O)c(O)c1 [Compound 23] | 0.18 ± 0.03 µM | 0.165 ± 0.025 µM | 
22 | O=C(N/N=C/c1ccc(O)cc1O)c1cc(O)c(O)c(O)c1 [Compound 18] | 1.7 ± 0.1 µM | 16 ± 3 µM | RNase H inhibition potency relative to IN activity ([1]; RNase H versus IN): ninefold more potently; EC50 ([3]; MT4, 120 h, read-out: EC50 for HIV-1 (50% protection from virus-induced cytopathic effect), 5 days, mean ± SD of two independent tests): 17 ± 4 µM; inhibition at 25 µM ([3]; MT4, at a concentration of 25 μM): 55 to 82%; CC50 at 5 days [4]: 61 µM
23 | O=C(N/N=C/c1cccc(O)c1O)c1ccccc1O [Compound 5] | > 100 µM |  | HIV-1 RNase H IC50 [1]: No inhibition
24 | O=C(N/N=C/c1c(O)cc(O)cc1O)c1cc(O)c(O)c(O)c1 [Compound 22] | 9.7 ± 1.6 µM | 1.8 ± 0.1 µM | 
